Results published in ChEMBL document CHEMBL1136232, “Novel inhibitors of an emerging target in Mycobacterium tuberculosis; substituted thiazolidinones as inhibitors of dTDP-rhamnose synthesis” (2003).
≈ marks a conversion by molar mass, not a printed value. Calls of active or inactive are those of the source. The rule behind the calls is not given here.

Columns and labels:
[1] = system: Mycobacterium tuberculosis; experiment: Percentage inhibition against Mycobacterium tuberculosis at a concentration of 20 uM; type: functional
[2] = system: Mycobacterium tuberculosis; experiment: Inhibitory activity against Mycobacterium tuberculosis H37Ra; type: functional
[3] = system: Mycolicibacterium smegmatis; experiment: Percentage inhibition against Rm1D at 20 uM
[4] = system: Mycolicibacterium smegmatis; experiment: Percentage inhibition against Rm1C at 20 uM; NA is not active
[5] = system: Mycolicibacterium smegmatis; experiment: Percentage inhibition against Rm1BCD at 20 uM
[6] = system: Mycolicibacterium smegmatis; experiment: Percentage inhibition against Rm1D at 20 uM; NA is not active
[7] = system: Mycolicibacterium smegmatis; experiment: Percentage inhibition against Rm1C at 20 uM

In the case of O=C(O)C(Cc1cc2ccccc2[nH]1)N1C(=O)CSC1c1ccc(-c2ccccc2)cc1 (stereo unspecified), the inhibition at 20 µM [1] was 66.5% and the MIC [2] was 50 µg/mL (≈ 113 µM).

Molecule CC[C@H](C)C(C(=O)OC)N1C(=O)CSC1c1ccc(N(C)C)cc1 (stereo partly specified) has an inhibition at 20 µM [1] of 110% and an MIC [2] of over 200 µg/mL.

With CCOC(=O)C(C(C)C)N1C(=O)C(C)SC1c1ccc2c(c1)c1ccccc1n2CC (stereo unspecified) the inhibition at 20 µM [1] was 52% and the MIC [2] was 25 µg/mL (≈ 57 µM).

For CCOC(=O)C(C(C)C)N1C(=O)C(C)SC1c1cccc(OC)c1O (stereo unspecified), the inhibition at 20 µM [1] was 60% and the MIC [2] was 25 µg/mL (≈ 68 µM).

COc1cc(C2SC(C)C(=O)N2C(Cc2ccc([N+](=O)[O-])cc2)C(=O)O)cc(OC)c1O (stereo unspecified) was tested, and the MIC [2] was 25 µg/mL (≈ 54.1 µM), the inhibition [3] was 71% and the inhibition [4] was “inactive”. The inhibition [5] was 42%.

CCOC(=O)C(C(C)C)N1C(=O)C(C)SC1c1ccc(-c2ccccc2)cc1 (stereo unspecified) was tested, and the inhibition at 20 µM [1] was 52.5% and the MIC [2] was 50 µg/mL (≈ 126 µM).

CCOC(=O)CCC(C(=O)OCC)N1C(=O)CSC1c1cccc(Oc2ccccc2)c1 (stereo unspecified) was tested, and the inhibition at 20 µM [1] was 64% and the MIC [2] was 50 µg/mL (≈ 109 µM).

COC(=O)C(CCSC)N1C(=O)CSC1c1ccc(N(C)C)cc1 (stereo unspecified) was tested, and the inhibition at 20 µM [1] was 100% and the MIC [2] was over 200 µg/mL.

CCn1c2ccccc2c2cc(C3SC(C)C(=O)N3C(Cc3c[nH]c4ccccc34)C(=O)O)ccc21 (stereo unspecified) was tested, and the inhibition at 20 µM [1] was 70.5% and the MIC [2] was 50 µg/mL (≈ 100 µM).

CCOC(=O)C(C)N1C(=O)CSC1c1cccc(Oc2ccccc2)c1 (stereo unspecified) was tested, and the inhibition at 20 µM [1] was 51% and the MIC [2] was 50 µg/mL (≈ 135 µM).

For CCn1c2ccccc2c2ccc(C3SCC(=O)N3C(Cc3c[nH]c4ccccc34)C(=O)OC)cc21 (stereo unspecified), the inhibition [6] was “inactive”, the inhibition [7] was 48% and the MIC [2] was over 200 µg/mL. The inhibition [5] was 45%.
